Experimental data published in PMC3914206.

Columns and labels:
Type in all cases: binding
Design in all cases: KINOMEscan: ABL1(F317L)-phosphorylated / KINOMEscan: ABL1(H396P)-nonphosphorylated / KINOMEscan: ABL1(H396P)-phosphorylated / KINOMEscan: ABL1(M351T)-phosphorylated / KINOMEscan: ABL1(T315I)-phosphorylated / KINOMEscan: ABL1-nonphosphorylated / KINOMEscan: ABL1-phosphorylated / KINOMEscan: ACVR2A / KINOMEscan: ACVR2B / KINOMEscan: ADCK3 / KINOMEscan: ADCK4 / KINOMEscan: AKT1 / KINOMEscan: AKT3 / KINOMEscan: ALK / KINOMEscan: ARK5 / KINOMEscan: AURKA / KINOMEscan: AURKC / KINOMEscan: BIKE / KINOMEscan: BMPR1A / KINOMEscan: BMPR1B / KINOMEscan: BMX / KINOMEscan: BRK / KINOMEscan: BRSK1 / KINOMEscan: BRSK2 / KINOMEscan: CAMK1 / KINOMEscan: CAMK1D / KINOMEscan: CAMK1G / KINOMEscan: CAMK2A / KINOMEscan: CAMK2B / KINOMEscan: AAK1 / KINOMEscan: CAMK2D / KINOMEscan: CAMK2G / KINOMEscan: ABL1(F317I)-nonphosphorylated / KINOMEscan: ABL1(F317I)-phosphorylated / KINOMEscan: ABL1(F317L)-nonphosphorylated: unit: % Ctrl
Details in all cases: Compound Concentration 10 µM
panel of 442 kinases [1] = target: T1, panel of 442 kinases (Homo sapiens, UniProt P00519, F317I)
T1 construct: purchased KINOMEscan
Text: (§1) We assessed the selectivity of members of this scaffold using the KINOMEscan methodology across a near comprehensive panel of 442 kinases [[18,27]].

panel of 442 kinases [2] = target: T2, panel of 442 kinases (Homo sapiens, UniProt P00519, M351T)
T2 construct: purchased KINOMEscan
Text: as §1

panel of 442 kinases [3] = target: T3, panel of 442 kinases (Homo sapiens, UniProt Q07002)
T3 construct: purchased KINOMEscan
T3 sequence (Q07002 whole entry): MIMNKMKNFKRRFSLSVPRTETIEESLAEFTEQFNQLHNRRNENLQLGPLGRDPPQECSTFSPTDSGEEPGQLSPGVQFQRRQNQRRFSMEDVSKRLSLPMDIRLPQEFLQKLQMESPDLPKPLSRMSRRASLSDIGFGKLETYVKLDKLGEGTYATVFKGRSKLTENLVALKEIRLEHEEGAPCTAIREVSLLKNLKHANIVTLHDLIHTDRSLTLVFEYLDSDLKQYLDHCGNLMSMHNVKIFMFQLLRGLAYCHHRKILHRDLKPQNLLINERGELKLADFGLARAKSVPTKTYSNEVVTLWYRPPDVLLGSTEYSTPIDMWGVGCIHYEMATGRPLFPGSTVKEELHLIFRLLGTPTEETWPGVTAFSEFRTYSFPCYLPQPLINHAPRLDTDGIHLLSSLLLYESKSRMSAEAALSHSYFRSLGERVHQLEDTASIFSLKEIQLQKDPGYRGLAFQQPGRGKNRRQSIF
Text: as §1

panel of 442 kinases [4] = target: T4, panel of 442 kinases (Homo sapiens, UniProt Q15375)
T4 construct: purchased KINOMEscan
T4 sequence (Q15375 28-998): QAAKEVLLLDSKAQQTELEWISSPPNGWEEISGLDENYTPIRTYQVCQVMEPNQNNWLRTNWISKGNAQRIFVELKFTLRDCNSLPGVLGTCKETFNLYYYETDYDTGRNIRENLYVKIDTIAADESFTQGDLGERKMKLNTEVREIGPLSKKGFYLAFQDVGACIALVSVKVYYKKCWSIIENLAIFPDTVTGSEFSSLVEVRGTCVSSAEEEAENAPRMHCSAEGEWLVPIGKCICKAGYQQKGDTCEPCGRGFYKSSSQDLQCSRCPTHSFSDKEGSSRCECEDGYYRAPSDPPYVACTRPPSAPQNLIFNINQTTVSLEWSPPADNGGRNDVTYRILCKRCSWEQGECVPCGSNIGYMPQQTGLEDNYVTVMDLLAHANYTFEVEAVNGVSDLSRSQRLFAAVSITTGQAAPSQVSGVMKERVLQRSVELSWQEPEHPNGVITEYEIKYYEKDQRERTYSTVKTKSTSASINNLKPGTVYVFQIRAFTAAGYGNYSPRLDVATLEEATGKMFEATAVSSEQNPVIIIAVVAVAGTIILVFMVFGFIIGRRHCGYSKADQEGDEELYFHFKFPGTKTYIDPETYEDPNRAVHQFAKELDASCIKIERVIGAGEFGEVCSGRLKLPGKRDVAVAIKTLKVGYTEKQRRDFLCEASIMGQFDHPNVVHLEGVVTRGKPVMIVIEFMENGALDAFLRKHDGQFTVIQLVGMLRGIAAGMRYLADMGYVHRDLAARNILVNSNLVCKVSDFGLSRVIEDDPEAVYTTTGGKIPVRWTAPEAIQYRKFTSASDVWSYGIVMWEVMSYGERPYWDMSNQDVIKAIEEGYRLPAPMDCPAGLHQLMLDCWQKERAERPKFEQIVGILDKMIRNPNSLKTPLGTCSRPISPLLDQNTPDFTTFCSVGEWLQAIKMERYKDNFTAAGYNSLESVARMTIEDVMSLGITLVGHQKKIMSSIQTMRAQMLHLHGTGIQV
Text: as §1

COc1cc(C(=O)N2CCC(N3CCN(C)CC3)CC2)ccc1Nc1ncc2c(n1)N(C)c1ccccc1C(=O)N2C [15 (LRRK2-IN-1)]
KINOMEscan: ABL1(F317I)-nonphosphorylated (panel of 442 kinases [1]): 15 | KINOMEscan: ABL1(F317I)-phosphorylated (panel of 442 kinases [1]): 17 | KINOMEscan: ABL1(M351T)-phosphorylated (panel of 442 kinases [2]): 94 | KINOMEscan: PCTK3 (panel of 442 kinases [3]): 100 | KINOMEscan: EPHA7 (panel of 442 kinases [4]): 97

CCOc1cc(C(=O)N2CCC(N3CCN(C)CC3)CC2)ccc1Nc1ncc2c(n1)N(C1CCCC1)c1ccccc1C(=O)N2C [Compound 26]
KINOMEscan: ABL1(F317I)-nonphosphorylated (panel of 442 kinases [1]): 51 | KINOMEscan: ABL1(F317I)-phosphorylated (panel of 442 kinases [1]): 64 | KINOMEscan: ABL1(M351T)-phosphorylated (panel of 442 kinases [2]): 89 | KINOMEscan: PCTK3 (panel of 442 kinases [3]): 100 | KINOMEscan: EPHA7 (panel of 442 kinases [4]): 100

COc1cc(C(=O)N2CCC(N3CCN(C)CC3)CC2)ccc1Nc1ncc2c(n1)N1CCc3cccc(c31)C(=O)N2C [Compound 24]
KINOMEscan: ABL1(F317I)-nonphosphorylated (panel of 442 kinases [1]): 17 | KINOMEscan: ABL1(F317I)-phosphorylated (panel of 442 kinases [1]): 24 | KINOMEscan: ABL1(M351T)-phosphorylated (panel of 442 kinases [2]): 77

COc1cc(C(=O)N2CCC(N3CCN(C)CC3)CC2)ccc1Nc1ncc2c(n1)N(C1CCCC1)c1ccccc1C(=O)N2C [Compound 25, 11-cyclopentyl-2-((2-methoxy-4-(4-(4-methylpiperazin-1-yl)piperidine-1-carbonyl)phenyl)amino)-5-methyl-5H-benzo[e]pyrimido[5,4-b][1,4]diazepin-6(11H)-one]
KINOMEscan: ABL1(F317I)-nonphosphorylated (panel of 442 kinases [1]): 26 | KINOMEscan: ABL1(F317I)-phosphorylated (panel of 442 kinases [1]): 29 | KINOMEscan: ABL1(M351T)-phosphorylated (panel of 442 kinases [2]): 80 | KINOMEscan: PCTK3 (panel of 442 kinases [3]): 100 | KINOMEscan: EPHA7 (panel of 442 kinases [4]): 99
